According to article PMC2939254 (Neuroscience, 2010):
Like-named read-outs stand apart in the source and are kept apart here.

Tests used:
[1] = test system: NR1a/NR2B NMDAR expressed in HEK293 cells; type: cell-based, rat; settings: pH 7.35
[2] = test system: NR1a/NR2A NMDAR expressed in HEK293 cells; type: cell-based, rat; settings: pH 7.35
[3] = test system: NR1b/NR2B NMDAR expressed in HEK293 cells; type: cell-based, rat; settings: pH 7.35
[4] = test system: NR1b/NR2A NMDAR expressed in HEK293 cells; type: cell-based, rat; settings: pH 7.35
[5] = test system: NR2A-containing NMDAR complexes; type: cell-based, rat
NR2B-containing NMDAR = type: cell-based, rat
[6] = test system: NR1b/NR2A NMDAR expressed in HEK293 cells; settings: cited from earlier work
[7] = test system: NR1a/NR2A NMDAR expressed in HEK293 cells; settings: cited from earlier work
[8] = test system: NR1b/NR2B NMDAR expressed in HEK293 cells; settings: cited from earlier work
[9] = test system: NR1a/NR2B NMDAR expressed in HEK293 cells; settings: cited from earlier work

Substance	% maximal inhibition, 1a/2B [1] [%]	% maximal inhibition, 1a/2A [2] [%]	% maximal inhibition, 1b/2B [3] [%]	% maximal inhibition, 1b/2A [4] [%]	inhibition of NR2A-containing NMDAR complexes [5]	maximal inhibition of NR2B-containing NMDAR (NR2B-containing NMDAR) [%]	% maximal inhibition, 1b/2A [6] [%]	% maximal inhibition, 1a/2A [7] [%]	% maximal inhibition, 1b/2B [8] [%]	% maximal inhibition, 1a/2B [9] [%]
GEγγLAKNA AγLARγNI(NH2) [con-R′ [V5L/ΔA10]]	69 ± 4	0	71 ± 3	0	–	–	–	–	–	–
GEγγLQANQγLIRγKSN(NH2) [con-G[γ7A]]	90 ± 4	0	95 ± 3	0	–	–	–	–	–	–
GEγγLQKMLγNLRγAEVKKNA(NH2) [con-T[Y5L]]	85 ± 3	80 ± 6	90 ± 6	86 ± 7	–	–	–	–	–	–
GEγγLQKNQγLIRγKSN(NH2) [con-G[γ7K]]	82 ± 5	0	94 ±2	0	–	–	–	–	–	–
GEγγLQγNQγNLRγAEVKKNA(NH2) [con-G/T]	80 ± 5	0	86 ± 4	0	no inhibition	> 80	–	–	–	–
GEγγVAAMAAγLARγNI(NH2) [con-R′ [K7A]]	91 ± 3	93 ± 3	95 ± 2	93 ± 4	–	–	–	–	–	–
GEγγVAKAAAγLARγNI(NH2) [con-R′ [M8A]]	85 ± 3	0	88 ± 4	0	–	–	–	–	–	–
GEγγVAKMA AγLARγNI(NH2) [con-R′ [ΔA10]]	55 ± 6	0	65 ± 5	0	–	–	–	–	–	–
GEγγVAKNAAγLARγNI(NH2) [con-R′ [M8N]]	53 ± 5	45 ± 6	66 ± 5	60 ± 7	–	–	–	–	–	–
GEγγVQKMAAγLARγNI(NH2) [con-R′ [A6Q]]	84 ± 5	50 ± 7	90 ± 4	72 ± 6	–	–	–	–	–	–
GEγγVQKMQAγLARγNI(NH2) [con-R′ [A6Q/A9Q]]	70 ± 6	0	79 ± 5	25 ± 5	–	–	–	–	–	–
GEγγYAKNA AγLARγNI(NH2) [con-R′ [V5Y/ΔA10]]	87 ± 5	82 ± 6	90 ± 3	84 ± 4	–	–	–	–	–	–
GEγγYQAMLγNLRγAEVKKNA(NH2) [con-T[K7A]]	85 ± 5	93 ± 2	94 ± 2	91 ± 3	–	–	–	–	–	–
GEγγYQKALAγNLRγAEVKKNA(NH2) [con-T[M8A/+A10]]	63 ± 4	0	67 ± 5	0	–	–	–	–	–	–
GEγγYQKALγNLRγAEVKKNA(NH2) [con-T[M8A]]	–	–	–	–	–	–	0	0	81 ± 5	73 ± 8
GEγγYQKGLγNLRγAEVKKNA(NH2) [con-T[M8G]]	80 ± 5	0	84 ± 4	0	–	–	–	–	–	–
GEγγYQKMAγNLRγAEVKKNA(NH2) [con-T[L9A]]	92 ± 5	93 ± 2	95 ± 2	91 ± 3	–	–	–	–	–	–
GEγγYQKNLγNLRγAEVKKNA(NH2) [con-T[M8N]]	–	–	–	–	–	–	56 ± 7	48 ± 6	90 ± 4	82 ± 5
GEγγYQγMLγNLRγAEVKKNA(NH2) [con-T[K7γ]]	86 ± 5	78 ± 4	90 ± 2	82 ± 6	–	–	–	–	–	–
